The subject of test [1] is ATP-dependent PFK. The experiment in a line: Allosteric effect of PEP on ATP-dependent PFK activity in oilseed rape embryo. Format: biochemical, Brassica napus.
Test [2] concerns PPi-PFKs of Thermoproteus tenax, Naegleria fowleri, Methylococcus capsulatus or Amycolatopsis methanolica. The note with it: Reshetnikov et al. 2008; Alves et al.; cited from earlier work.
For test [3], the system named is AGPase. The experiment in a line: Allosteric effect of 3-PGA on AGPase activity in oilseed rape embryo. Format: biochemical, Brassica napus. The protocol: The intermediates PEP and 3-PGA are known to allosterically affect enzymatic activity of ATP-dependent PFK and AGPase, respectively.
[…] 500 μl of common extraction buffer [10% (v/v) glycerol, 0.25% (w/v) BSA, 0.1% (v/v) Triton X-100, 50 mM Hepes/KOH, pH 7.5, 10 mM MgCl2, 1 mM EDTA, 1 mM EGTA, 1 mM benzamidine, 1 mM ε-aminocapronic acid, 1 mM phenylmethylsulfonyl fluoride (PMSF), […], 1 mM dithiothreitol (DTT)] and c. 10 mg polyvinyl pyrrolidone. PMSF was added just before extraction. DTT was omitted when using peroxidase-based or MTT-based indicator reactions (MTT: methylthiazolyldiphenyl-tetrazolium bromide). A 96-head liquid handling robot (Evolution P3, Perkin Elmer, Wellesey, Mass., USA) was used to perform subsequent dilutions of these initial extracts and to load extracts on to 96-well micro plates. During this process micro plates were maintained at 4° C. using peltier cooled blocks. […] The concentration of the products of these stopped reactions (NAD+, NADH, NADPH or glycerol-3-phosphate) was then determined using cycling assays. […] Nitrate reductase and glutamine synthetase were determined using end point assays (Gibon et al, 2004, supra). […] After measuring PK activity at pH 8.0 and at pH 6.7, the plastidic and cytosolic activities were calculated accordingly.

The structures appear in SMILES notation.

The values that follow come from patent publication US20170204426A1, “MODIFIED BRASSICA PLANTS WITH INCREASED SEED OIL CONTENT” (BROOKHAVEN SCIENCE ASSOCIATES, LLC, priority 2014, published 2017).

`C=C(OP(=O)(O)O)C(=O)O` [PEP, phosphoenolpyruvate]: the “effect on enzymatic activity of ATP-dependent PFK” value in test [1] is listed as “clear activity changes”. Further, in test [2], the “inhibition of PPi-PFK by PEP” value is “not inhibited”.
With `O=C(O)[C@H](O)COP(=O)(O)O` [3-PGA, 3-phosphoglycerate], the “effect on enzymatic activity of AGPase” value in test [3] is “clear activity changes”.
